This data set in a line: physchem. It counts as physicochemical. As to conditions: 37 °C. On the procedure: This solubility is measured in an aqueous medium at 37° C., maintained at the pH under consideration. The solubility of Irbesartan varies greatly in the gastric pH range: The solubility of Eprosartan varies greatly in the gastric pH range: The solubility of Acyclovir varies greatly in the gastric pH range: […]

The mark [1] stands for this setting: pH 1.2, simulated gastric fluid.

Values after ≈ are worked out from the molar mass of the structure shown.

Broadly, the solubility is how much of the substance goes into solution per volume.

For `CCCCC1=NC2(CCCC2)C(=O)N1Cc1ccc(-c2ccccc2-c2nnn[nH]2)cc1` [Irbesartan], the solubility is, setting by setting: under setting [1], 2420 µg/mL (≈ 5650 µM); (pH 2, simulated gastric fluid) 362 µg/mL (≈ 845 µM); (pH 3, aqueous buffer) 48 µg/mL (≈ 112 µM); (pH 4.5, aqueous buffer) 20 µg/mL (≈ 46.7 µM); (pH 5.5, aqueous buffer) 65 µg/mL (≈ 152 µM); (pH 6.8, aqueous buffer) 666 µg/mL (≈ 1550 µM).

Consider `Nc1nc2c(ncn2COCCO)c(=O)[nH]1` [Acyclovir], for which the solubility by setting is: under setting [1], 10500 µg/mL (≈ 46600 µM); (pH 2, simulated gastric fluid) 6000 µg/mL (≈ 26600 µM); (pH 2.5, aqueous buffer) 3300 µg/mL (≈ 14700 µM); (pH 4.5, aqueous buffer) 2600 µg/mL (≈ 11500 µM); (pH 6.8, aqueous buffer) 2500 µg/mL (≈ 11100 µM).

The compound `CCCCc1ncc(/C=C(\Cc2cccs2)C(=O)O)n1Cc1ccc(C(=O)O)cc1` [Eprosartan] registered a solubility under setting [1] of 795 µg/mL (≈ 1870 µM); a solubility (pH 2, simulated gastric fluid) of 142 µg/mL (≈ 334 µM); a solubility (pH 3, aqueous buffer) of 33 µg/mL (≈ 77.7 µM); a solubility (pH 4.5, aqueous buffer) of 18 µg/mL (≈ 42.4 µM); a solubility (pH 5.5, aqueous buffer) of 15 µg/mL (≈ 35.3 µM); a solubility (pH 6.8, aqueous buffer) of 1190 µg/mL (≈ 2810 µM).

Values taken from patent publication US20110159088A1, “ORAL PHARMACEUTICAL FOR BASED ON AT LEAST ONE ACTIVE PRINCIPLE WHOSE SOLUBILITY VARIES AS A FUNCTION OF THE GASTRIC pH CONDITIONS” (Flamel Technologies, S.A., priority 2005, published 2011).
